The values below come from publication doi:10.1101/2021.06.16.448769v1 (bioRxiv, 2021).

One test deals with human C5 (Homo sapiens, UniProt P01031). In words: SPR multi-cycle kinetics, binding to human C5. As to conditions: for fold change in KD relative to parent: relative to the unmodified parent knob domain, Figure 5H.
Test [1] concerns C5 activation (C5b-6), alternative pathway. The test can be described thus: Alternative pathway. Type of test: biochemical.
[2] abbreviates: KD, peptide after reduction and capping of cysteines with iodoacetamide (IAM).
[3] abbreviates: KD, reduced and IAM-capped knob domains, S4.
[4] abbreviates: reduced and IAM-capped knob domains, S4.

Where two headings read alike, the source gives them in different places. Bridge positions count the residues as written; N and C are the ends. Square brackets hold non-standard residues; d marks the D form. Ends that are not written are not given here. Peptide text beside a SMILES is read from it. * marks the point of attachment. Cam = NC(=O)C*

Chain of human C5 (P01031 19-673 limits assumed): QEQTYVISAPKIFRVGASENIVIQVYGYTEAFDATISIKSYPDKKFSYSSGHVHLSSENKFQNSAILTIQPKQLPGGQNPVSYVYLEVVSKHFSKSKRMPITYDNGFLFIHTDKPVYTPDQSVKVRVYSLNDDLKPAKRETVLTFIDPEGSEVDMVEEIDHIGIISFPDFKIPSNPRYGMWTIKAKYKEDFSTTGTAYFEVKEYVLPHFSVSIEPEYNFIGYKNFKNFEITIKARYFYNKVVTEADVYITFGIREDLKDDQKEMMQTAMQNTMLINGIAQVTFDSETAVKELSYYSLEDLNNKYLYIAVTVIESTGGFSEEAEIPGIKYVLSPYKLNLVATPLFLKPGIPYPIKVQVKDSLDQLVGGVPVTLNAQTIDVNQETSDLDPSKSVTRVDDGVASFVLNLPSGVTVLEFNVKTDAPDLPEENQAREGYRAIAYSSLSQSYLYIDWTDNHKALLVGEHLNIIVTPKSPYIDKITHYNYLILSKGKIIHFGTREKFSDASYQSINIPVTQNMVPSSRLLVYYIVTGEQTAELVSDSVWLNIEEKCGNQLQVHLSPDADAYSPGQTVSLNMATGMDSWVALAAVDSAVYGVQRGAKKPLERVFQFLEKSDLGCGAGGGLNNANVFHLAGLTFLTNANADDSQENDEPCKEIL
Chain of human C5 (P01031 678-1676 limits assumed): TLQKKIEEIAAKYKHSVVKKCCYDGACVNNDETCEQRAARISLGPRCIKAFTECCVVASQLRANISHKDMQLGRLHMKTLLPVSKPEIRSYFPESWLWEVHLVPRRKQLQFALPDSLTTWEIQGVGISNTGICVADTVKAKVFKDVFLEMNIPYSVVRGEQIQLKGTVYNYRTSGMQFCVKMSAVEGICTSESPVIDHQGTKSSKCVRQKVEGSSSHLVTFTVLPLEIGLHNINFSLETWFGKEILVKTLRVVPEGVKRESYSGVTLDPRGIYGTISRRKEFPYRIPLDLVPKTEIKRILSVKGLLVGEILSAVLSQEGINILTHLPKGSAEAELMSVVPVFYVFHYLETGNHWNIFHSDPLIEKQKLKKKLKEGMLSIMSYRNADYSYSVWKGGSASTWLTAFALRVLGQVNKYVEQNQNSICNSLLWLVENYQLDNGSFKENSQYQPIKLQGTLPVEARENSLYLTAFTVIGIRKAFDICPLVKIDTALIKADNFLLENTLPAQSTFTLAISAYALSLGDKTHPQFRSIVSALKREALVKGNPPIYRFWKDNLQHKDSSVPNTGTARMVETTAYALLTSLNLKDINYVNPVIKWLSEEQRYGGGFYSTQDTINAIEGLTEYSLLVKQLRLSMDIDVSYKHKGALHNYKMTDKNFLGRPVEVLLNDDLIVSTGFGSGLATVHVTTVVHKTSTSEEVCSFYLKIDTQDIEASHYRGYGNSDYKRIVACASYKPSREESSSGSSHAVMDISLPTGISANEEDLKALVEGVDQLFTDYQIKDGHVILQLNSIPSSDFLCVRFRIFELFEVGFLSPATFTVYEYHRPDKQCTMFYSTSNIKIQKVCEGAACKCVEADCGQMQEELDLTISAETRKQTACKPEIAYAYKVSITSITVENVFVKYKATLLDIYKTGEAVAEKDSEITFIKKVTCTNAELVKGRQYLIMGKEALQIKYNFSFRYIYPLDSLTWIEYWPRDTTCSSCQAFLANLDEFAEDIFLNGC

Turning to `CC[C@H](C)[C@@H]1NC(=O)[C@H](CC(N)=O)NC(=O)[C@H](C(C)C)NC(=O)CNC(=O)[C@@H]2CSSC[C@@H](C(=O)NCC(=O)N[C@@H](Cc3c[nH]cn3)C(=O)N[C@@H](Cc3ccccc3)C(=O)N[C@@H](CC(C)C)C(=O)N[C@@H](CC(N)=O)C(=O)N[C@@H](CO)C(=O)NCC(=O)N3CCC[C@H]3C(=O)N[C@@H](CC(N)=O)C(=O)N[C@H](C(=O)N[C@@H](CO)C(=O)N3CCC[C@H]3C(=O)N[C@@H](Cc3ccc(O)cc3)C(=O)N[C@H](C(=O)N[C@@H](CO)C(=O)N[C@H](C(=O)O)[C@@H](C)O)C(C)C)[C@@H](C)CC)NC(=O)CNC(=O)[C@H](Cc3c[nH]c4ccccc34)NC(=O)[C@H](CCCNC(=N)N)NC(=O)CNC(=O)[C@H](CSSC[C@H](NC(=O)[C@@H](N)[C@@H](C)O)C(=O)N3CCC[C@H]3C(=O)N[C@@H](CCC(=O)O)C(=O)NCC(=O)N[C@@H](Cc3c[nH]c4ccccc34)C(=O)N[C@@H](CO)C(=O)N[C@@H](CCC(=O)O)C(=O)N2)NC(=O)[C@H](CCC(=O)O)NC(=O)[C@H](Cc2ccc(O)cc2)NC(=O)CNC(=O)[C@H](Cc2ccc(O)cc2)NC1=O` [K92chemFE A12N] (H-TCPEGWSECGVNIYGYECGRWGCGHFLNSGPNISPYVST-OH; disulfide 2-18, 9-23; N-terminus and C-terminus assumed), the “fold change in KD relative to parent” value on human C5 is recorded as 4.6.

For the compound “GC(Cam)PPGYKSGVDC(Cam)SPGSEC(Cam)KWGC(Cam)YAVDGRRYGGYGADSGVGS-OH [K57chemFE reduced and capped]”, on human C5 (setting [2]), binding was put at a Kd of 76 nM. In addition, binding at human C5 (setting [3]) was characterised by a dissociation constant (Kd) of 75.6 nM. At human C5 (setting [4]), this compound displayed a koff of 0.000358 s⁻¹ and an on-rate constant (kon) of 4740 M⁻¹ s⁻¹.

Turning to `CSCC[C@@H]1NC(=O)[C@@H]2CCCN2C(=O)[C@@H]2CSSC[C@H](NC(=O)[C@H](CCCNC(=N)N)NC(=O)CNC(=O)[C@H](C(C)C)NC1=O)C(=O)N[C@@H](CC(C)C)C(=O)N[C@@H](C)C(=O)N1CCC[C@H]1C(=O)N[C@@H](CCCNC(=N)N)C(=O)N[C@@H](CC(N)=O)C(=O)N[C@@H]([C@@H](C)O)C(=O)N[C@@H](CO)C(=O)N[C@H]1CSSC[C@H](NC(=O)[C@H](Cc3ccccc3)NC(=O)[C@H](CC(=O)O)NC(=O)[C@H](CC(=O)O)NC(=O)[C@H](Cc3c[nH]c4ccccc34)NC(=O)[C@H](CO)NC(=O)[C@H](CCCNC(=N)N)NC(=O)[C@H](Cc3ccc(O)cc3)NC(=O)[C@H](CO)NC(=O)[C@H](Cc3ccccc3)NC(=O)CNC(=O)[C@H](CC(=O)O)NC(=O)[C@@H]3CCCN3C1=O)C(=O)N2` [K149chemFE^cyclic] (cyclo(APRNTSCPDGFSYRSWDDFCCPMVGRCL); disulfide 7-20, 21-27 (inferred); ring closure inferred), the “fold change in KD relative to parent” value at human C5 worked out at 0.2.

For `CC[C@H](C)[C@@H]1NC(=O)[C@H](CCCCNC(C)=O)NC(=O)[C@H](C(C)C)NC(=O)CNC(=O)[C@@H]2CSSC[C@@H](C(=O)NCC(=O)N[C@@H](Cc3c[nH]cn3)C(=O)N[C@@H](Cc3ccccc3)C(=O)N[C@@H](CC(C)C)C(=O)N[C@@H](CC(N)=O)C(=O)N[C@@H](CO)C(=O)NCC(=O)N3CCC[C@H]3C(=O)N[C@@H](CC(N)=O)C(=O)N[C@H](C(=O)N[C@@H](CO)C(=O)N3CCC[C@H]3C(=O)N[C@@H](Cc3ccc(O)cc3)C(=O)N[C@H](C(=O)N[C@@H](CO)C(=O)N[C@H](C(=O)O)[C@@H](C)O)C(C)C)[C@@H](C)CC)NC(=O)CNC(=O)[C@H](Cc3c[nH]c4ccccc34)NC(=O)[C@H](CCCNC(=N)N)NC(=O)CNC(=O)[C@H](CSSC[C@H](NC(=O)[C@@H](N)[C@@H](C)O)C(=O)N3CCC[C@H]3C(=O)N[C@@H](CCC(=O)O)C(=O)NCC(=O)N[C@@H](Cc3c[nH]c4ccccc34)C(=O)N[C@@H](CO)C(=O)N[C@@H](CCC(=O)O)C(=O)N2)NC(=O)[C@H](CCC(=O)O)NC(=O)[C@H](Cc2ccc(O)cc2)NC(=O)CNC(=O)[C@H](Cc2ccc(O)cc2)NC1=O` [K92chemFE A12K(Ac)] (H-TCPEGWSECGVK(Ac)IYGYECGRWGCGHFLNSGPNISPYVST-OH; disulfide 2-18, 9-23; N-terminus and C-terminus assumed), the “effect in AP ELISA (in words)” value in test [1] is “two-fold increase in efficacy”. Further, the “fold change in KD relative to parent” value on human C5 is listed as 130.2.

Consider `CC[C@H](C)[C@H](NC(=O)[C@H](C)NC(=O)[C@@H](NC(=O)CNC(=O)[C@H](CSCC(N)=O)NC(=O)[C@H](CCC(=O)O)NC(=O)[C@H](CO)NC(=O)[C@H](Cc1c[nH]c2ccccc12)NC(=O)CNC(=O)[C@H](CCC(=O)O)NC(=O)[C@@H]1CCCN1C(=O)[C@H](CSCC(N)=O)NC(=O)[C@@H](N)[C@@H](C)O)C(C)C)C(=O)N[C@@H](Cc1ccc(O)cc1)C(=O)NCC(=O)N[C@@H](Cc1ccc(O)cc1)C(=O)N[C@@H](CCC(=O)O)C(=O)N[C@@H](CSCC(N)=O)C(=O)NCC(=O)N[C@@H](CCCNC(=N)N)C(=O)N[C@@H](Cc1c[nH]c2ccccc12)C(=O)NCC(=O)N[C@@H](CSCC(N)=O)C(=O)NCC(=O)N[C@@H](Cc1c[nH]cn1)C(=O)N[C@@H](Cc1ccccc1)C(=O)N[C@@H](CC(C)C)C(=O)N[C@@H](CC(N)=O)C(=O)N[C@@H](CO)C(=O)NCC(=O)N1CCC[C@H]1C(=O)N[C@@H](CC(N)=O)C(=O)N[C@H](C(=O)N[C@@H](CO)C(=O)N1CCC[C@H]1C(=O)N[C@@H](Cc1ccc(O)cc1)C(=O)N[C@H](C(=O)N[C@@H](CO)C(=O)N[C@H](C(=O)O)[C@@H](C)O)C(C)C)[C@@H](C)CC` [K92 chemFE reduced and capped] (H-TC(Cam)PEGWSEC(Cam)GVAIYGYEC(Cam)GRWGC(Cam)GHFLNSGPNISPYVST-OH; N-terminus assumed), for which binding at human C5 (setting [2]) was put at a Kd of 2000 nM. Besides, at human C5 (setting [3]), binding was characterised by a dissociation constant (Kd) of 2350 nM. Moreover, at human C5 (setting [4]), the koff is 0.000172 s⁻¹ and the kon came to 72.9 M⁻¹ s⁻¹.

In the case of `CSCC[C@@H]1NC(=O)[C@@H]2CCCN2C(=O)[C@@H](NC(=O)[C@@H]2CSSC[C@H](NC(=O)[C@@H](N)CO)C(=O)N3CCC[C@H]3C(=O)N[C@@H](CC(=O)O)C(=O)NCC(=O)N[C@@H](Cc3ccccc3)C(=O)N[C@@H](CO)C(=O)N[C@@H](Cc3ccc(O)cc3)C(=O)N[C@@H](CCCNC(=N)N)C(=O)N[C@@H](CO)C(=O)N[C@@H](Cc3c[nH]c4ccccc34)C(=O)N[C@@H](CC(=O)O)C(=O)N[C@@H](CC(=O)O)C(=O)N[C@@H](Cc3ccccc3)C(=O)N2)CSSC[C@@H](C(=O)N[C@@H](CC(C)C)C(=O)N[C@@H](C)C(=O)N2CCC[C@H]2C(=O)N[C@@H](CCCNC(=N)N)C(=O)N[C@@H](CC(N)=O)C(=O)O)NC(=O)[C@H](CCCNC(=N)N)NC(=O)CNC(=O)[C@H](C(C)C)NC1=O` [K149chemSD-A] (H-SCPDGFSYRSWDDFCCPMVGRCLAPRN-OH; disulfide 2-15, 16-22; N-terminus assumed), the Kd at human C5 (read-out: mean KD, SPR multi-cycle kinetics, mean of n=3) worked out at 7.3 nM.

On to `CC[C@H](C)[C@H](NC(=O)[C@H](CC(N)=O)NC(=O)[C@@H]1CCCN1C(=O)CNC(=O)[C@H](CO)NC(=O)[C@H](CC(N)=O)NC(=O)[C@H](CC(C)C)NC(=O)[C@H](Cc1ccccc1)NC(=O)[C@H](Cc1c[nH]cn1)NC(=O)CNC(=O)[C@@H]1CSSC[C@@H]2NC(=O)[C@H](CCC(=O)O)NC(=O)[C@H](CO)NC(=O)[C@H](Cc3c[nH]c4ccccc34)NC(=O)CNC(=O)[C@H](CCC(=O)O)NC(=O)[C@@H]3CCCN3C(=O)[C@@H](NC(=O)[C@@H](N)[C@@H](C)O)CSSC[C@H](NC(=O)[C@H](CCC(=O)O)NC(=O)[C@H](Cc3ccc(O)cc3)NC(=O)CNC(=O)[C@H](Cc3ccc(O)cc3)NC(=O)[C@H]([C@@H](C)CC)NC(=O)[C@@H](Cc3c[nH]c4ccccc34)NC(=O)[C@H](C(C)C)NC(=O)CNC2=O)C(=O)NCC(=O)N[C@@H](CCCNC(=N)N)C(=O)N[C@@H](Cc2c[nH]c3ccccc23)C(=O)NCC(=O)N1)C(=O)N[C@@H](CO)C(=O)N1CCC[C@H]1C(=O)N[C@@H](Cc1ccc(O)cc1)C(=O)N[C@H](C(=O)N[C@@H](CO)C(=O)N[C@H](C(=O)O)[C@@H](C)O)C(C)C` [K92chemFE A12d-W] (H-TCPEGWSECGV[dW]IYGYECGRWGCGHFLNSGPNISPYVST-OH; disulfide 2-18, 9-23; N-terminus and C-terminus assumed), for which, at human C5, the “fold change in KD relative to parent” value was determined as 165.6.

`CC[C@H](C)[C@@H]1NC(=O)[C@H](C)NC(=O)[C@H](C(C)C)NC(=O)CNC(=O)[C@@H]2CSSC[C@@H]3NC(=O)CNC(=O)[C@H](Cc4c[nH]c5ccccc45)NC(=O)[C@H](CCCNC(=N)N)NC(=O)CNC(=O)[C@H](CSSC[C@H](NC(=O)[C@H]([C@@H](C)O)NC(=O)[C@H](Cc4ccc(O)cc4)NC(=O)[C@@H]4CCCN4C(=O)[C@H](CO)NC(=O)[C@H]([C@@H](C)CC)NC(=O)[C@H](CC(N)=O)NC(=O)[C@@H]4CCCN4C(=O)CNC(=O)[C@H](CO)NC(=O)[C@H](CC(N)=O)NC(=O)[C@H](CC(C)C)NC(=O)[C@H](Cc4ccccc4)NC(=O)[C@H](Cc4c[nH]cn4)NC(=O)CNC3=O)C(=O)N3CCC[C@H]3C(=O)N[C@@H](CCC(=O)O)C(=O)NCC(=O)N[C@@H](Cc3c[nH]c4ccccc34)C(=O)N[C@@H](CO)C(=O)N[C@@H](CCC(=O)O)C(=O)N2)NC(=O)[C@H](CCC(=O)O)NC(=O)[C@H](Cc2ccc(O)cc2)NC(=O)CNC(=O)[C@H](Cc2ccc(O)cc2)NC1=O` [K92chemFE^cyclic] (cyclo(AIYGYECGRWGCGHFLNSGPNISPYTCPEGWSECGV); disulfide 7-27, 12-34): the “fold change in KD relative to parent” value at human C5 was 39.7.

In the case of “cyclo(ADSGVGSTGCPPGYKSGVDCSPGSECKWGCYAVDGRRYGGYG) (disulfide 10-26, 20-30 (inferred); ring closure inferred) [K57chemFE^cyclic]”, on human C5, the “fold change in KD relative to parent” value came out at 0.8.
